In patent publication US7604939B2, “Methods of identifying active BRM expression-promoting HDAC inhibitors” (The Regents of the University of Michigan, priority 2005, dated 2009):
pIC50: −log10 of the molar value. Like-named read-outs stand apart in the source and are kept apart here. Where a SMILES comes first, the peptide text is derived from it. [ ]: non-standard residue; d: D form. Aoe = N[C@@H](CCCCCC(=O)[C@@H]1CO1)C(=O)O

Columns and labels:
[1] = test system: BRM expression; assay: Time course of BRM expression in SW13 cells with butyrate and after its removal; format: cell-based, human
Protocol: Cells were treated daily with sodium butyrate (5 mM). Total protein was extracted at 4, 12, 24, 36, […], and 72 hours after the first dosage. Upregulation of BRM with butyrate treatment was detected after 12 hours and reached a plateau between 24 and 48 hours. GAPDH was the loading control. […] Cells were treated with sodium butyrate at a final concentration of 5 mM for three consecutive days. On the fourth day, the medium was changed and cells were harvested at various time points for protein detection. BRM protein levels declined and returned to baseline after 4-5 days. (NaBut=sodium butyrate, un=untreated).
This Example describes an analysis of the temporal effects of HDAC inhibitors on BRM re-expression. In partciular, to understand how HDAC inhibitors affected BRM expression, the time course at which BRM expression in SW13 cells was induced by continued exposure to butyrate was determined. The upregulation of BRM expression was detected by western blot analysis at 12 hours and reached a plateau at 24 hours. Little change in BRM expression occurred with continued treatment for an additional 48 hours (FIG. 3A). This process was reversible, as BRM expression returned to pretreatment levels after removal of sodium butyrate. To further characterize this effect, SW13 cells were treated with butyrate for 72 hours, sodium butyrate was removed, and BRM levels were measured by western blotting from 0 to 6 days. The BRM protein levels remained elevated for 72 hours and returned to near baseline levels at 96 hours (FIG. 3B). In parallel with BRM protein, the BRM mRNA level determined by quantative RT-PCR, also remained elevated for 3 days, returning to baseline level by 4 days. These findings indicate the changes in BRM protein levels paralleled the changes in the BRM mRNA levels.

[2] = molecular target: T1, HDAC8 (Homo sapiens, UniProt Q9BY41); conditions: Class 1 HDAC; cited from earlier work
T1 sequence (Q9BY41 1-377): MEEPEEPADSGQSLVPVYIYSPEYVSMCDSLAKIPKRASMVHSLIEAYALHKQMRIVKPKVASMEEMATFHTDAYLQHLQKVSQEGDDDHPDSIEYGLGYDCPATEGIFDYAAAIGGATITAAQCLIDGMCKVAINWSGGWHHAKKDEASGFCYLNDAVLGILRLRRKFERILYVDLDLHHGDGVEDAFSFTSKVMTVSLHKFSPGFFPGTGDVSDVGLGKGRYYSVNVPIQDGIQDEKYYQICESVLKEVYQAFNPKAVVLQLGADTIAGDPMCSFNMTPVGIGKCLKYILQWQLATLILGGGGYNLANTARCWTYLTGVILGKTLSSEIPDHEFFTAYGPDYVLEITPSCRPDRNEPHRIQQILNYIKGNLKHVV

[3] = molecular target: T2, HDAC10 (Homo sapiens, UniProt Q969S8); conditions: Class 2 HDAC; cited from earlier work
T2 sequence (Q969S8 1-669): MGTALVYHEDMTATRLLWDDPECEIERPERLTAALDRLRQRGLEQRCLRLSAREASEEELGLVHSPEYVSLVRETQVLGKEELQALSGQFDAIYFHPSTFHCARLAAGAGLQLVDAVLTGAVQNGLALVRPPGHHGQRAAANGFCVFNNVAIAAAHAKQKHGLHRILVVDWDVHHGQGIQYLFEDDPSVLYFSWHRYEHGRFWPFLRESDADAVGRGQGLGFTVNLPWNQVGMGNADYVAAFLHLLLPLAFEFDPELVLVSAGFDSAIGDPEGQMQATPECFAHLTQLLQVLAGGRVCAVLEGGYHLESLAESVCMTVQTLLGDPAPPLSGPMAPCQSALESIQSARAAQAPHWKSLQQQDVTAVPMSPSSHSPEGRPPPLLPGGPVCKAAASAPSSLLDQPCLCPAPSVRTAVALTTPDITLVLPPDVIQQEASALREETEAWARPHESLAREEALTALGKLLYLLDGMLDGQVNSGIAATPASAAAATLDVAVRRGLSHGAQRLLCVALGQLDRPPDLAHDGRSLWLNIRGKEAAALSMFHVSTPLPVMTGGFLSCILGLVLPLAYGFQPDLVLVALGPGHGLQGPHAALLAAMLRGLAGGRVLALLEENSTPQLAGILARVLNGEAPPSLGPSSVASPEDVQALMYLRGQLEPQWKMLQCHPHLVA

[4] = molecular target: T3, HDAC6 (Homo sapiens, UniProt Q9UBN7); conditions: Class 2 HDAC; cited from earlier work
T3 sequence (Q9UBN7 1-1215): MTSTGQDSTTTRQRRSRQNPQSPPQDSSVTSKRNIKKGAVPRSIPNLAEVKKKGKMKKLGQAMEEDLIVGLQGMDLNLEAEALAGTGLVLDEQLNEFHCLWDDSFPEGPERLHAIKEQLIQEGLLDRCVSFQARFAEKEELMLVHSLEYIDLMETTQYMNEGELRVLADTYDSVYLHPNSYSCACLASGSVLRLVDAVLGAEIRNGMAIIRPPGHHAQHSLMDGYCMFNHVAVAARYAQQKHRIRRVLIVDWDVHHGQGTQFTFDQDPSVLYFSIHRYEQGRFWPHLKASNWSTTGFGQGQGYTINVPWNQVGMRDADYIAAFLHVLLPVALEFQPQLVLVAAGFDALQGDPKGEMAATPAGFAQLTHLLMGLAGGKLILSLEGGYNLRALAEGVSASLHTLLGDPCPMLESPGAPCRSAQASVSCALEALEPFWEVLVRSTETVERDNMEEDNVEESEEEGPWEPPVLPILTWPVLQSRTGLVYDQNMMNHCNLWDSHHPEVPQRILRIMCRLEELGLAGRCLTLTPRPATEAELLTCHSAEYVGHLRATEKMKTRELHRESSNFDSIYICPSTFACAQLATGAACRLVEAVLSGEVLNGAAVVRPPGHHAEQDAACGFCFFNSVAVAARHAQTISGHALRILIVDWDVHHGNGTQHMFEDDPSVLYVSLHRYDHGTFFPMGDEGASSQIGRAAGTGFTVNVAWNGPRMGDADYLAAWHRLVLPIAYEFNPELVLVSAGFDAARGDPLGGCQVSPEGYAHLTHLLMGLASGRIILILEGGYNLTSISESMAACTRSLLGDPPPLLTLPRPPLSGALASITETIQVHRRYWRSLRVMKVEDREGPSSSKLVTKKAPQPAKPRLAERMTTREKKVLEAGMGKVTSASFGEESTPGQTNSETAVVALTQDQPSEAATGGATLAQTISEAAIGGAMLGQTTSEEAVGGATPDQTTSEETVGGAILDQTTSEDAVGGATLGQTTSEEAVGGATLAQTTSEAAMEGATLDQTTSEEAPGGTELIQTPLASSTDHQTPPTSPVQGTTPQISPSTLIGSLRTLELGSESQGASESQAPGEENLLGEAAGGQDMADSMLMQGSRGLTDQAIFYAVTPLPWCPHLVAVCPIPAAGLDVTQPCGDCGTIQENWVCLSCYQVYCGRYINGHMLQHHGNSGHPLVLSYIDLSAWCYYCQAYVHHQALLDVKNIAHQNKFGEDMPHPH

[5] = test system: Class 3 HDACs; conditions: cited from earlier work
[6] = molecular target: HDAC1 (Homo sapiens, UniProt Q13547); conditions: cited from earlier work; for Sensitivity of HDAC1 to the inhibitor: Class 1 HDAC
[7] = test system: BRM expression; assay: BRM mRNA (RT-PCR) and protein (western blotting) expression in BRG1/BRM-deficient cell lines after treatment
Excerpt: This example describes the treatment of cells lines with undetectable BRG1 and BRM protein expression with various HDAC inhibitors or 5-aza-deoxycytidine (5-azaCdR). […] This upregulation effect was also examined in the six other BRG1/BRM-deficient cell lines, using RT-PCR.

[8] = molecular target: HDAC3 (Homo sapiens, UniProt O15379); conditions: cited from earlier work; for pIC50: read-out: IC50 HDAC3
[9] = molecular target: HDAC4 (Homo sapiens, UniProt P56524); conditions: Class 2 HDAC; cited from earlier work
[10] = molecular target: HDAC9 (Homo sapiens, UniProt Q9UKV0); conditions: Class 2 HDAC; cited from earlier work
[11] = molecular target: HDAC5 (Homo sapiens, UniProt Q9UQL6); conditions: Class 2 HDAC; cited from earlier work
[12] = molecular target: HDAC2 (Homo sapiens, UniProt Q92769); conditions: Class 1 HDAC; cited from earlier work
[13] = test system: p16 expression; assay: p16 expression by semi-quantitative RT-PCR in control cell lines; format: cell-based, human; conditions: 5uM on three consecutive days; H23 and H441 cell lines
[14] = test system: H23 and SW13 cell lines; assay: Toxicity to BRG1/BRM-deficient cell lines; format: cell-based, human; conditions: most pronounced in the H23 and SW13 cell lines
[15] = SW13, continued exposure, 5 mM daily (FIG. 3A)
[16] = SW13, treated 72 hours, then removed
[17] = SW13, treated 72 hours, then removed (FIG. 3B)

Sequence of HDAC1 (Q13547 whole entry): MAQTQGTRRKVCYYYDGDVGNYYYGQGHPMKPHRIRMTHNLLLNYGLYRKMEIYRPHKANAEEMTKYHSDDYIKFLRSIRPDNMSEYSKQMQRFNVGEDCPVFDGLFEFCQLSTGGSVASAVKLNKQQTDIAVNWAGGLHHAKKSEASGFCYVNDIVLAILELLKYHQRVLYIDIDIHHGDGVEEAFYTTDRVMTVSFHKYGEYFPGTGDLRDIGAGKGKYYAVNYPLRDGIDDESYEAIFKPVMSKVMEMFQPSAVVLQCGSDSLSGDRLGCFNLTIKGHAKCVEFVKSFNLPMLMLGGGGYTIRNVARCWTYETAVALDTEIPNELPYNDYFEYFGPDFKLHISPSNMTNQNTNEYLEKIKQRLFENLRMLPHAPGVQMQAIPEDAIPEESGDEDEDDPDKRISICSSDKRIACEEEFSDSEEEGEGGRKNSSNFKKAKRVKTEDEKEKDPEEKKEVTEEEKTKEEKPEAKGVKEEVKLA
Sequence of HDAC3 (O15379 whole entry): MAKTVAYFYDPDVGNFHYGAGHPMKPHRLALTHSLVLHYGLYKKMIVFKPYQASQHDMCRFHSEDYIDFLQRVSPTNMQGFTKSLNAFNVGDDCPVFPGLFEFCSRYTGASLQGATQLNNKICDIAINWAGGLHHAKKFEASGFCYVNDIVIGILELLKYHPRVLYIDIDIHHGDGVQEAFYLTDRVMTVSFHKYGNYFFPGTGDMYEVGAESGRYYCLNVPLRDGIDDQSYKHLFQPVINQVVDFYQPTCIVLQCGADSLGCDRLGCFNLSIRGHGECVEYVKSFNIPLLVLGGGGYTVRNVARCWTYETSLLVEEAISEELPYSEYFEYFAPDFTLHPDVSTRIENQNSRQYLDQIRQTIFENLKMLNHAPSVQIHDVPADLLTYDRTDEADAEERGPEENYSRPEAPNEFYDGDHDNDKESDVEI
Sequence of HDAC3 (Q9Y618 395-489 partner limits assumed): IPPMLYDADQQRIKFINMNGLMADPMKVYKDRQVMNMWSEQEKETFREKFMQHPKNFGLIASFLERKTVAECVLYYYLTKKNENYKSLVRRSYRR
Sequence of HDAC4 (P56524 whole entry): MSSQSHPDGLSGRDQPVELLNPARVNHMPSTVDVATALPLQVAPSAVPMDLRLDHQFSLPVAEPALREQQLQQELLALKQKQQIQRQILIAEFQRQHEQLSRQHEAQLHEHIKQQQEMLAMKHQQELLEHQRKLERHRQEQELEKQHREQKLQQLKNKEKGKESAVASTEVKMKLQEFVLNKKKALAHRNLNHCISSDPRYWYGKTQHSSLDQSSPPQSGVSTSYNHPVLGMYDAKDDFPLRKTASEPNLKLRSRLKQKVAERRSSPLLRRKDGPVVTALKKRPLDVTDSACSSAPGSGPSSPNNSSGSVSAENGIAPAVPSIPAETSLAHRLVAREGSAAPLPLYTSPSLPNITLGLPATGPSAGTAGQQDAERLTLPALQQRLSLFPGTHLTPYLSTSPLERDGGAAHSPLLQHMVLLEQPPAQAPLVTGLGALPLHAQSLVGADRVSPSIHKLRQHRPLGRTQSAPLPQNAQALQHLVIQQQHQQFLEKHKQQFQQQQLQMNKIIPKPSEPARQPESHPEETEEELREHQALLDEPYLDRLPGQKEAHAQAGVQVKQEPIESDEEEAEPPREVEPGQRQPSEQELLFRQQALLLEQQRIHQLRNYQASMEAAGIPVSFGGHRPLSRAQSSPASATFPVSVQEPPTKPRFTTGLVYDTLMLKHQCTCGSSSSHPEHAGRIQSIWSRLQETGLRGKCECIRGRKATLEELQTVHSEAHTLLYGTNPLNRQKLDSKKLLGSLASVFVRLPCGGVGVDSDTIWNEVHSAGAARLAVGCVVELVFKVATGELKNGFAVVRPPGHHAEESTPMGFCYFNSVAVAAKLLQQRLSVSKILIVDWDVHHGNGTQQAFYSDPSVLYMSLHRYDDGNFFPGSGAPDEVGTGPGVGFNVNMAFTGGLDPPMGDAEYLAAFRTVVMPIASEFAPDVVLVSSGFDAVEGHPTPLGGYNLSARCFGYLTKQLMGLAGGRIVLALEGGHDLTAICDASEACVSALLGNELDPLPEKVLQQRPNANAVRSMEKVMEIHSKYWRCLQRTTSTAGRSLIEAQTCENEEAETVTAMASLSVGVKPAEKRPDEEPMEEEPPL
Sequence of HDAC9 (Q9UKV0 whole entry): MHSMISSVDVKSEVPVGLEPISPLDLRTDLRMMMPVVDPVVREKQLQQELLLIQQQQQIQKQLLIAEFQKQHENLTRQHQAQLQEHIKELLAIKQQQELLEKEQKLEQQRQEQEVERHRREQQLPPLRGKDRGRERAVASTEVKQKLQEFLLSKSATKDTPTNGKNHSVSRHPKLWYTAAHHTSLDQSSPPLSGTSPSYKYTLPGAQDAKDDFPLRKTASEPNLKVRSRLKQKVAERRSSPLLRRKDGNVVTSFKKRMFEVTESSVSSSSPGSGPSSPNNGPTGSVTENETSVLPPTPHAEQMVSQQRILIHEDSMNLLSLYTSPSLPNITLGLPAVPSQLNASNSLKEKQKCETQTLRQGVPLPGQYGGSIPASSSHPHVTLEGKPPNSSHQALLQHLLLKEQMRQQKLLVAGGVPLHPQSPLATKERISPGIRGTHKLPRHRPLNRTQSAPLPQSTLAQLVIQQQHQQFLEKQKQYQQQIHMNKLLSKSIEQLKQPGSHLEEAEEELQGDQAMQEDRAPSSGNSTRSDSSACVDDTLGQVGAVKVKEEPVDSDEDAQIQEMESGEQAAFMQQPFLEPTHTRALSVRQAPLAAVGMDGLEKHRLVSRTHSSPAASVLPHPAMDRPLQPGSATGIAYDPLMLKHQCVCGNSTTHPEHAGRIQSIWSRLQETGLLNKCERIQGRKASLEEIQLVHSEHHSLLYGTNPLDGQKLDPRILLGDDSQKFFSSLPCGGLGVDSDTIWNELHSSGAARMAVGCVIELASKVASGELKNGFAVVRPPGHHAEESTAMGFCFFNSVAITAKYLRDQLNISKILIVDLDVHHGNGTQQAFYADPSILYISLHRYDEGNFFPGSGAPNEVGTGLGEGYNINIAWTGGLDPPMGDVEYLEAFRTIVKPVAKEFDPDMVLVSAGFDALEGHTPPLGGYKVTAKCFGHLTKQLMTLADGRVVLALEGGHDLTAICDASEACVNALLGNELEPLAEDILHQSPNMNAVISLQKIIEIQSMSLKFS
Sequence of HDAC5 (Q9UQL6 whole entry): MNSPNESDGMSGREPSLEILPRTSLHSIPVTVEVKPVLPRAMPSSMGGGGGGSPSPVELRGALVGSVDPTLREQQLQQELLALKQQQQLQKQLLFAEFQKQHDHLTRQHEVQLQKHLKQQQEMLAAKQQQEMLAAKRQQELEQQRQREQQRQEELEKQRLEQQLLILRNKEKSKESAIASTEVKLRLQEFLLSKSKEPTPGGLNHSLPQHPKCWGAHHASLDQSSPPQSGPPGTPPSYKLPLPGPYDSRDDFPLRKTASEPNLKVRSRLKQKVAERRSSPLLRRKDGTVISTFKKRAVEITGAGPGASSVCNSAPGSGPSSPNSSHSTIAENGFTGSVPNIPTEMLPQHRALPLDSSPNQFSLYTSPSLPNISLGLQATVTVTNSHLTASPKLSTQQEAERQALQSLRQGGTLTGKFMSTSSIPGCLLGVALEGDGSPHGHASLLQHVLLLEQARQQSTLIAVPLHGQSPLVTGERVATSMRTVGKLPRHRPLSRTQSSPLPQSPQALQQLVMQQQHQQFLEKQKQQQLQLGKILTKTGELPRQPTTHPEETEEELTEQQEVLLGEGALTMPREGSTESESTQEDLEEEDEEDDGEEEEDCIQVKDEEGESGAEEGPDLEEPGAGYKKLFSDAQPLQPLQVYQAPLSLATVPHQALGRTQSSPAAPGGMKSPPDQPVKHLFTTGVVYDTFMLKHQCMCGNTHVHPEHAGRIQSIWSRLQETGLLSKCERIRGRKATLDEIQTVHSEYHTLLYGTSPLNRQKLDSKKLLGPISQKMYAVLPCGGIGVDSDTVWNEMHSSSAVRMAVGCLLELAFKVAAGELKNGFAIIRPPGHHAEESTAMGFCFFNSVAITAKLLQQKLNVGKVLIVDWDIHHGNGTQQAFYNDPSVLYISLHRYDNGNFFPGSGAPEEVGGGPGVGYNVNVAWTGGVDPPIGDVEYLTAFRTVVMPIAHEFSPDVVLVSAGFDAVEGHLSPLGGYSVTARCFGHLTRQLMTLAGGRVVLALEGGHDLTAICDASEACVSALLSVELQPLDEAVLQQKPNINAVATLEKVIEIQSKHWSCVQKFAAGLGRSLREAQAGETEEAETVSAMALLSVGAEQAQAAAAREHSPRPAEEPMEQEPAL
Sequence of HDAC2 (Q92769 whole entry): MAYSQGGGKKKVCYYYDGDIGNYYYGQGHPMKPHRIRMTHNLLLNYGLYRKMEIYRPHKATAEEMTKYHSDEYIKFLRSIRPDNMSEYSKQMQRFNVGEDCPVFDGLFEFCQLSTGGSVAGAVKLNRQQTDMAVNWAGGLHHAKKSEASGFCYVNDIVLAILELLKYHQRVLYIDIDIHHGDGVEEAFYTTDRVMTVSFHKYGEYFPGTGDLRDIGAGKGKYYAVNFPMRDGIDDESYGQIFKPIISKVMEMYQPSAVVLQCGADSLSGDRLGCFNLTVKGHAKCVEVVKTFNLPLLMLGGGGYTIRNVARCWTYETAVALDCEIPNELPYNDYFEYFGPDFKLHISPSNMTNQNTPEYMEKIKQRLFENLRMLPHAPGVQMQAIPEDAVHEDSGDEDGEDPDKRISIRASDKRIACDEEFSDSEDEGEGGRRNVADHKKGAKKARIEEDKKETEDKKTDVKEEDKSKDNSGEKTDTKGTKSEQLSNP

CCCC(=O)[O-].[Na+] [sodium butyrate]
Time at which BRM protein levels returned to baseline after medium change ([1]; 5 mM for three consecutive days, medium changed on fourth day (FIG. 3B)): 4 to 5 days
Change in BRM expression with continued treatment for an additional 48 hours ([1]; SW13, after plateau (FIG. 3A)): Little change
Time at which BRM protein expression reached a plateau, western blot [1, 15]: 24 h
Time at which upregulation of BRM protein was detected, western blot [1, 15]: 12 h
Time BRM mRNA level remained elevated after removal, quantitative RT-PCR [1, 16]: 3 days
Time at which BRM mRNA returned to baseline after removal, quantitative RT-PCR [1, 16]: ≤ 4 days
Time BRM protein levels remained elevated after removal [1, 17]: 72 h
Time at which BRM protein returned to near baseline after removal [1, 17]: 96 h
Sensitivity of HDAC8 to the inhibitor [2]: Yes
Sensitivity of HDAC10 to the inhibitor [3]: No
Sensitivity of HDAC6 to the inhibitor [4]: No
Sensitivity of Class 3 HDACs to the inhibitor [5]: Resistance
Sensitivity of HDAC1 to the inhibitor [6]: Yes
pIC50 [6]: ~3.52
Induction of BRM, RT-PCR ([7]; Panc-1 and H513 cell lines, butyrate treatment): failed to demonstrate an appreciable induction
Number of the ten BRG1/BRM-deficient cell lines showing BRM transcript re-expression, RT-PCR ([7]; after butyrate treatment, of ten cell lines): eight
Upregulation of BRM, cyber-green quantitation PCR ([7]; butyrate treatment, responding BRG1/BRM-deficient cell lines): 8-20 fold
Sensitivity of HDAC3 to the inhibitor [8]: Yes
pIC50 [8]: ~3.52

O=C1N[C@@H](Cc2ccccc2)C(=O)N2CCC[C@@H]2C(=O)N[C@@H](CCCCCC(=O)[C@@H]2CO2)C(=O)N[C@H]1Cc1ccccc1 [Trapoxin] (cyclo(FF[dP][Aoe]))
Sensitivity of HDAC10 to the inhibitor [3]: No
Sensitivity of HDAC6 to the inhibitor [4]: No
Sensitivity of HDAC3 to the inhibitor ([8]; Class 1 HDAC): Yes
pIC50 [8]: ~7.00

CC(/C=C/C(=O)NO)=C\[C@@H](C)C(=O)c1ccc(N(C)C)cc1 [Trichostatin A, trichostatin A]
Sensitivity of HDAC4 to the inhibitor [9]: Yes
Sensitivity of HDAC8 to the inhibitor [2]: Yes
Sensitivity of HDAC10 to the inhibitor [3]: Yes
Sensitivity of HDAC6 to the inhibitor [4]: Yes
Sensitivity of Class 3 HDACs to the inhibitor [5]: Resistance
Sensitivity of HDAC1 to the inhibitor [6]: Yes
Sensitivity of HDAC9 to the inhibitor [10]: Yes
Sensitivity of HDAC5 to the inhibitor [11]: Yes

CCCC(CCC)C(=O)O [Valpoic Acid, valproic acid]
Sensitivity of HDAC2 to the inhibitor [12]: yes
Sensitivity of HDAC1 to the inhibitor [6]: yes

Nc1ncn([C@H]2C[C@H](O)[C@@H](CO)O2)c(=O)n1 [5azaCytD, 5-aza-deoxycytidine]
Silencing of p16, semi-quantitative RT-PCR [13]: reversed

C/C=C1\NC(=O)[C@H]2CSSCC/C=C/[C@H](CC(=O)N[C@H](C(C)C)C(=O)N2)OC(=O)[C@H](C(C)C)NC1=O [FR901228]
Sensitivity of HDAC4 to the inhibitor [9]: weak
Sensitivity of HDAC6 to the inhibitor [4]: weak
Sensitivity of HDAC1 to the inhibitor [6]: Yes
Sensitivity of HDAC3 to the inhibitor ([8]; Class 1 HDAC): Yes

Nc1ccccc1NC(=O)c1ccc(CNC(=O)OCc2cccnc2)cc1 [MS-275]
Toxicity to cell lines compared to butyrate [14]: increased toxicity
